Consider 17 molecules from patent US20120077957A1, “Lactam-Bridged Melanocortin Receptor-Specific Peptides” (PALATIN TECHNOLOGIES, INC., priority 2009, published 2012).

SMILES strings stand for the structures. Like-named read-outs stand apart in the source and are kept apart here. Bridge positions count the residues as written; N and C are the ends. Square brackets hold non-standard residues; d marks the D form. Peptide text beside a SMILES is read from it. * marks the point of attachment. Orn = NCCC[C@H](N)C(=O)O; Bn = c1ccc(C*)cc1

Experiment [1] addresses T1, human MC4-R (Homo sapiens, UniProt P32245).
T1 construct: expressed in transfected cells; host or cells: HEK293 T-REx (tetracycline-regulated, Invitrogen); cell line from Palatin Technologies with license from the University of Michigan
In words: Competitive inhibition binding assay with [I125]-NDP-α-MSH or Eu-NDP-α-MSH, membranes of HEK-293 cells expressing recombinant hMC4-R. Here is the method:
A competitive inhibition binding assay was performed using membrane homogenates prepared from HEK-293 cells that express recombinant hMC4-R, hMC3-R, or hMC5-R, and from B-16 mouse melanoma cells (containing endogenous MC1-R). In some instances, HEK-293 cells that express recombinant hMC1-R were employed. In the examples that follow, all MC3-R, MC4-R and MC5-R values are for human recombinant receptors. […] After incubation for 60 minutes at 37° C., the assay mixture was filtered and the membranes washed three times with ice-cold buffer. Filters were dried and counted in a gamma counter for bound radioactivity. […] Maximal specific binding (100%) was defined as the difference in radioactivity (cpm) bound to cell membranes in the absence and presence of 1 μM NDP-α-MSH. […] Ki values for test peptides of the present invention were determined using Graph-Pad Prism® curve-fitting software.
Alternatively, a competitive inhibition binding assay was performed employing Eu-NDP-α-MSH (PerkinElmer Life Sciences catalog No. AD0225) with determination by time-resolved fluorometry (TRF) of the lanthanide chelate. […] After incubation for 90 minutes at 37° C., the reaction was stopped by filtration over AcroWell 96-well filter plates (Pall Life Sciences). The filter plates were washed 4 times with 200 μL of ice-cold phosphate-buffered saline. DELFIA Enhancement solution (PerkinElmer Life Sciences) was added to each well. […] Each assay was conducted in duplicate and mean values were utilized. Ki values were determined by curve-fitting with Graph-Pad Prism® software using a one-site fixed-slope competition binding model.

Experiment [2] concerns the target T1, human MC4-R. In words: cAMP functional assay in HEK-293 T-REx cells expressing human MC4-R, induced with doxycycline 0.1 ng/mL (low density). In kind it is cell-based. To be noted: doxycycline 0.1 ng/mL, averages of all comparable assays; for Emax: HEK293-T-REx, maximal cAMP stimulation, NDP-α-MSH = 100%, read-out: Emax; for EC50: human MC4-R cAMP assay, read-out: Ec50. From the text:
A HEK293 cell line transfected with human MC4-R (from Palatin Technologies, US, with license from the University of Michigan) was used. The human MC4-R was introduced to HEK293 by using the T-REx™ System, Invitrogen. The T-REx™ System employs a tetracycline-regulated mammalian expression system that uses regulatory elements from the E. coli Tn10-encoded tetracycline (Tet) resistance operon. By use of the T-REx™ System, expression of the gene of interest, the human MC4-R gene, is repressed in the absence of tetracycline or doxycycline and induced in the presence of tetracycline or doxycycline (see T-REx™ System Manual, published by Invitrogen).
Cells were then counted and volume was adjusted to 5×10^4 cells per 200 μL.
The cells were then dispensed into 96-well plates (BD 353916) in 198 μL (about 5×10^4) cells/well and incubated for 10 minutes at 37° C. The compound to be tested was diluted with DMSO to a final concentration of 1 mM. Serial dilution was prepared in polypropylene removable 12-well library tube strips (VWR cat #83009-682). 120 μL of the 1 mM compound stock was pipetted in the second column on the plate.
2 μL of the standard, [Nle^4, D-Phe^7]alpha-Melanocyte Stimulating Hormone (NDP-α-MSH), or compound was added to the 96-well plate using the Janus robotic system. All assay samples were run in duplicate (i.e. each sample was in two low dox and two high dox plates, respectively). The plates were gently shaken and incubated for 15 minutes at 37° C. The reaction was stopped by adding 15 μL of lysis buffer per well and the plates were shakened for 30 minutes at room temperature.
Agonist stimulation of the MC4-R activates adenylate cyclase, which is an enzyme that catalyses the formation 3′,5′-cyclic adenosine monophosphate (cAMP) from adenosine triphosphate (ATP). […] Fluoresence ratios were then calculated as described in the CisBio HTRF kit, with GraphPad Prism software used to plot the change in fluorescence percent values versus cAMP concentration using the variable slope dose response curve and, based on calculated cAMP concentrations, to determine EC50 and Emax values. […]
Background: cAMP levels reflect the balance of adenylyl cyclase and phosphodiesterase activity.

[3] abbreviates: human MC4-R, averages of all comparable assays, read-out: Ki.

T1 sequence (P32245 whole entry): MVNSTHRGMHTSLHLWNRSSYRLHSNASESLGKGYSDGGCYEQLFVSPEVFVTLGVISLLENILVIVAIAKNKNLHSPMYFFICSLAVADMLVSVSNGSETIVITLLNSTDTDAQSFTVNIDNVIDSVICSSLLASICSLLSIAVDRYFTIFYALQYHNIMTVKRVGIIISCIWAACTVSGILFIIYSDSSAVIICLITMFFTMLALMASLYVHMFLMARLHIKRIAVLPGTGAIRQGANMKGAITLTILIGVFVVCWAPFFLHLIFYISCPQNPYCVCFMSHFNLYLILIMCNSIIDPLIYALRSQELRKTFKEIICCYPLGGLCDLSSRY

Broadly, the Ki is a dissociation constant, usually derived from enzyme kinetics or from competition with a known ligand. The term Emax denotes the maximal effect, on the per cent scale that the assay sets. One may read the EC50 as the midpoint of the concentration-response curve. Turning to `CC(=O)NCCC[C@@H]1NC(=O)[C@@H](NC(=O)[C@H](CCCNC(=N)N)NC(C)=O)CCC(=O)NCCC[C@@H](C(N)=O)NC(=O)[C@H](Cc2c[nH]c3ccccc23)NC(=O)[C@H](CCCNC(=N)N)NC(=O)[C@@H](Cc2ccccc2)NC1=O` [No. 33, Ac-Arg-cyclo(Glu-Orn(Acetyl)-D-Phe-Arg-Trp-Orn)-NH2], the inhibition constant Ki at human MC4-R [1] (setting [3]) is 7 nM. At human MC4-R [2], the Emax is 90% and the EC50 turned out to be 3 nM.
As for `CC(=O)N[C@@H](CCCNC(=N)N)C(=O)N[C@H]1CCC(=O)NCCC[C@@H](C(N)=O)NC(=O)[C@H](Cc2c[nH]c3ccccc23)NC(=O)[C@H](CCCNC(=N)N)NC(=O)[C@@H](Cc2ccccc2)NC(=O)[C@H](CC(N)=O)NC1=O` [No. 34, Ac-Arg-cyclo(Glu-Asn-D-Phe-Arg-Trp-Orn)-NH2], the Ki at human MC4-R [1] (setting [3]) came out at 6 nM. Also, the EC50 at human MC4-R [2] worked out at 0.4 nM.
As for `CCCC[C@H](NC(C)=O)C(=O)N[C@H]1CCCNC(=O)CC[C@@H](C(=O)O)NC(=O)[C@H](Cc2c[nH]c3ccccc23)NC(=O)[C@H](CCCNC(=N)N)NC(=O)[C@@H](Cc2ccccc2)NC(=O)[C@H](Cc2c[nH]cn2)NC1=O` [No. 35, Ac-Nle-cyclo(Orn-His-D-Phe-Arg-Trp-Glu)-OH], the inhibitory constant (Ki) on human MC4-R [1] (setting [3]) turned out to be 1 nM. Moreover, on human MC4-R [2], the Emax stood at 97% and the concentration giving a half-maximal response (EC50) came to 2 nM.
In the same order, the values of `CCCC[C@H](NC(C)=O)C(=O)N[C@H]1CCCNC(=O)CC[C@@H](C(N)=O)NC(=O)[C@H](Cc2c[nH]c3ccccc23)NC(=O)[C@H](CCCNC(=N)N)NC(=O)[C@@H](Cc2ccccc2)NC(=O)[C@H](Cc2c[nH]cn2)NC1=O` [No. 36, Ac-Nle-cyclo(Orn-His-D-Phe-Arg-Trp-Glu)-NH2] are 0.2 nM, 85% and 0.2 nM.
For `CC(=O)N[C@@H](CCCNC(=N)N)C(=O)N[C@H]1CCCNC(=O)CC[C@@H](C(=O)O)NC(=O)[C@H](Cc2c[nH]c3ccccc23)NC(=O)[C@H](CCCNC(=N)N)NC(=O)[C@@H](Cc2ccccc2)NC(=O)[C@H](Cc2c[nH]cn2)NC1=O` [No. 37, Ac-Arg-cyclo(Orn-His-D-Phe-Arg-Trp-Glu)-OH] (Ac-R[Orn]H[dF]RWE-OH; lactam 2-7), in that order: 12 nM, 88% and 0.6 nM.
Consider `CC(=O)N[C@@H](CCCNC(=N)N)C(=O)N[C@H]1CCCNC(=O)CC[C@@H](C(N)=O)NC(=O)[C@H](Cc2c[nH]c3ccccc23)NC(=O)[C@H](CCCNC(=N)N)NC(=O)[C@@H](Cc2ccccc2)NC(=O)[C@H](Cc2c[nH]cn2)NC1=O` [No. 38, Ac-Arg-cyclo(Orn-His-D-Phe-Arg-Trp-Glu)-NH2] (Ac-R[Orn]H[dF]RWE-NH2; lactam 2-7), for which the Ki on human MC4-R [1] (setting [3]) was found to be 1 nM. On human MC4-R [2], the Emax amounted to 84% and the EC50 was 1 nM.
For the molecule `CC(=O)N[C@@H](CCCCN)C(=O)N[C@H]1CCCNC(=O)CC[C@@H](C(N)=O)NC(=O)[C@H](Cc2c[nH]c3ccccc23)NC(=O)[C@H](CCCNC(=N)N)NC(=O)[C@@H](Cc2ccccc2)NC(=O)[C@H](Cc2c[nH]cn2)NC1=O` [No. 40, Ac-Lys-cyclo(Orn-His-D-Phe-Arg-Trp-Glu)-NH2] (Ac-K[Orn]H[dF]RWE-NH2; lactam 2-7), the inhibitory constant (Ki) at human MC4-R [1] was determined as 3 nM. For the same molecule, on human MC4-R [2], the maximal response (Emax) came to 114% and the concentration giving a half-maximal response (EC50) turned out to be 0.2 nM.
For `CC(=O)N[C@@H](CCCNC(=N)N)C(=O)N[C@H]1CCCNC(=O)CC[C@@H](C(N)=O)NC(=O)[C@H](Cc2c[nH]c3ccccc23)NC(=O)[C@H](CCCNC(=N)N)NC(=O)[C@@H](Cc2ccccc2)NC(=O)[C@H](C)NC1=O` [No. 41, Ac-Arg-cyclo(Orn-Ala-D-Phe-Arg-Trp-Glu)-NH2] (Ac-R[Orn]A[dF]RWE-NH2; lactam 2-7), the inhibition constant Ki at human MC4-R [1] (setting [3]) stood at 19 nM. In addition, at human MC4-R [2], the Emax came to 52% and the 50% effective concentration (EC50) stood at 7 nM.
Take `CC(=O)N[C@@H](CCCNC(=N)N)C(=O)N[C@H]1CCCNC(=O)CC[C@@H](C(N)=O)NC(=O)[C@H](Cc2c[nH]c3ccccc23)NC(=O)[C@H](CCCNC(=N)N)NC(=O)[C@@H](Cc2ccccc2)NC(=O)[C@H](CCN)NC1=O` [No. 43, Ac-Arg-cyclo(Orn-Dab-D-Phe-Arg-Trp-Glu)-NH2]: the Ki at human MC4-R [1] was determined as 3 nM. For the same molecule, at human MC4-R [2], the maximum response (Emax) was found to be 103% and the EC50 was determined as 0.1 nM.
`CC(=O)N[C@@H](CCCNC(=N)N)C(=O)N[C@H]1CCCNC(=O)CC[C@@H](C(N)=O)NC(=O)[C@H](Cc2c[nH]c3ccccc23)NC(=O)[C@H](CCCNC(=N)N)NC(=O)[C@@H](Cc2ccccc2)NC(=O)[C@@H]2CCCN2C1=O` [No. 47, Ac-Arg-cyclo(Orn-Pro-D-Phe-Arg-Trp-Glu)-NH2] (Ac-R[Orn]P[dF]RWE-NH2; lactam 2-7): the Ki at human MC4-R [1] (setting [3]) stood at 5 nM. On human MC4-R [2], the Emax was 54% and the EC50 turned out to be 6 nM.
Regarding `CC(=O)N[C@@H](CCCNC(=N)N)C(=O)N[C@H]1CCCNC(=O)CC[C@@H](C(=O)O)NC(=O)[C@H](Cc2c[nH]c3ccccc23)NC(=O)[C@H](CCCNC(=N)N)NC(=O)[C@@H](Cc2ccccc2)NC(=O)[C@H](COCc2ccccc2)NC1=O` [No. 48, Ac-Arg-cyclo(Orn-Ser(Bzl)-D-Phe-Arg-Trp-Glu)-OH] (Ac-R[Orn]S(Bn)[dF]RWE-OH; lactam 2-7), the inhibition constant Ki on human MC4-R [1] (setting [3]) is 5 nM. For the same molecule, at human MC4-R [2], the Emax was found to be 50% and the EC50 amounted to 3 nM.
In the same order, the values of `CC(=O)N[C@@H](CCCNC(=N)N)C(=O)N[C@H]1CC(=O)NCCCC[C@@H](C(=O)O)NC(=O)[C@H](Cc2c[nH]c3ccccc23)NC(=O)[C@H](CCCNC(=N)N)NC(=O)[C@@H](Cc2ccccc2)NC(=O)[C@H](CCCN)NC1=O` [reference compound] are 18 nM, 84% and 12 nM.
On to `CC(=O)N[C@@H](CCCNC(=N)N)C(=O)N[C@H]1CC(=O)NCCCC[C@@H](C(N)=O)NC(=O)[C@H](Cc2c[nH]c3ccccc23)NC(=O)[C@H](CCCNC(=N)N)NC(=O)[C@@H](Cc2ccccc2)NC(=O)[C@H](CCCN)NC1=O` [reference compound], for which, on human MC4-R [1] (setting [3]), the Ki is 7 nM. Further, the maximum response (Emax) at human MC4-R [2] is 79%.
In the same order, the values of `CC(=O)N[C@@H](CCCNC(=N)N)C(=O)N[C@H]1CC(=O)NCCCC[C@@H](C(N)=O)NC(=O)[C@H](Cc2c[nH]c3ccccc23)NC(=O)[C@H](CCCNC(=N)N)NC(=O)[C@@H](Cc2ccccc2)NC(=O)[C@H](CCS(C)(=O)=O)NC1=O` [reference compound] are 7 nM and 29%.
For `CC(=O)N[C@@H](CCCNC(=N)N)C(=O)N[C@H]1CC(=O)NCCCC[C@@H](C(N)=O)NC(=O)[C@H](Cc2c[nH]c3ccccc23)NC(=O)[C@H](CCCNC(=N)N)NC(=O)[C@@H](Cc2ccccc2)NC(=O)[C@@H]2C[C@@H](N)CN2C1=O` [reference compound], on human MC4-R [1] (setting [3]), the Ki turned out to be 5 nM. Further, at human MC4-R [2], the Emax was 61% and the EC50 was determined as 8 nM.
Take `CC(=O)NCCC[C@@H]1NC(=O)[C@@H](NC(=O)[C@H](CCCNC(=N)N)NC(C)=O)CC(=O)NCCCC[C@@H](C(N)=O)NC(=O)[C@H](Cc2c[nH]c3ccccc23)NC(=O)[C@H](CCCNC(=N)N)NC(=O)[C@@H](Cc2ccccc2)NC1=O` [reference compound]: the inhibition constant (Ki) at human MC4-R [1] (setting [3]) was 573 nM. Besides, the maximal effect (Emax) on human MC4-R [2] was found to be 62%.
As to `CC(=O)NCC[C@@H]1NC(=O)[C@@H](NC(=O)[C@H](CCCNC(=N)N)NC(C)=O)CC(=O)NCCCC[C@@H](C(N)=O)NC(=O)[C@H](Cc2c[nH]c3ccccc23)NC(=O)[C@H](CCCNC(=N)N)NC(=O)[C@@H](Cc2ccccc2)NC1=O` [reference compound], the inhibitory constant (Ki) at human MC4-R [1] is 33 nM. The Emax at human MC4-R [2] is 69%.
